Measured values taken from patent publication US20160169850A1, “SENSOR MOLECULE” (University of Malta, priority 2014, published 2016).
Read-outs that look alike come from different tables or passages of the source.

Assays:
[1] = CH3CN; known sensor; cited from earlier work
[2] = CH3CN; known sensor; cited from earlier work; remark: listed apart in the source
[3] = 1:1 methanol:water, excess H^+ (pH 3), emission at 525 nm
[4] = for Fluorescent Output: 1:1 MeOH:H2O

| Compound | Quantum Yield (ΦF) [1] | Fluorescent Enhancement (FE) [2] | Output emission, logic level (Condition A: H^+ low, Fe^3+ low) | Output emission, logic level (Condition B: 0.2 mM H^+, Fe^3+ low) | Output emission, logic level (Condition C: H^+ low, 10 μM Fe(III)) | Output emission, logic level (Condition D: 0.2 mM H^+ and 10 μM Fe(III)) | −log [Fe^3+] at equivalence point [3] | visual output under UV lamp ([4]; 365 nm light, high acid and Fe(III), 1:1 methanol/water) | Fluorescent Output ([4]; Condition A: no inputs) | Fluorescent Output ([4]; Condition D: Fe(III) and H^+ both) | fluorescence enhancement ([4]; both inputs versus no input or one input, 1:1 methanol:water) |
| --- | --- | --- | --- | --- | --- | --- | --- | --- | --- | --- | --- |
| CN(CC1=CSC(=C2SC=CS2)S1)Cc1c2ccccc2cc2ccccc12 [Compound 2] | 0.015 | 5 |  |  |  |  |  |  |  |  |  |
| N-ferrocenyl-4-methylpiperazine-1,8-naphthalimide [Compound 5] |  |  | low (Output is considered high when >0.050) | low (Output is considered high when >0.050) | low (Output is considered high when >0.050) | high (Output is considered high when >0.050) | 5.1 | bright green fluorescent | Low | High | 19 fold |
